Data taken from ChEMBL document CHEMBL2074129 (J Clin Invest, 1995).

Assays:
[1] = target: ATP-dependent translocase ABCB1 (Mus musculus, UniProt P21447); experiment: TP_TRANSPORTER: transepithelial transport (basal to apical) in mdr1a-expressing LLC-PK1 cell; format: functional, cell-based; details: pig
[2] = target: ATP-dependent translocase ABCB1 (Homo sapiens, UniProt P08183); experiment: TP_TRANSPORTER: transepithelial transport (basal to apical) in MDR1-expressing LLC-PK1 cells; format: functional, cell-based; details: pig
ATP-dependent translocase ABCB1 (Homo sapiens, UniProt P08183), sequence (P08183 whole entry): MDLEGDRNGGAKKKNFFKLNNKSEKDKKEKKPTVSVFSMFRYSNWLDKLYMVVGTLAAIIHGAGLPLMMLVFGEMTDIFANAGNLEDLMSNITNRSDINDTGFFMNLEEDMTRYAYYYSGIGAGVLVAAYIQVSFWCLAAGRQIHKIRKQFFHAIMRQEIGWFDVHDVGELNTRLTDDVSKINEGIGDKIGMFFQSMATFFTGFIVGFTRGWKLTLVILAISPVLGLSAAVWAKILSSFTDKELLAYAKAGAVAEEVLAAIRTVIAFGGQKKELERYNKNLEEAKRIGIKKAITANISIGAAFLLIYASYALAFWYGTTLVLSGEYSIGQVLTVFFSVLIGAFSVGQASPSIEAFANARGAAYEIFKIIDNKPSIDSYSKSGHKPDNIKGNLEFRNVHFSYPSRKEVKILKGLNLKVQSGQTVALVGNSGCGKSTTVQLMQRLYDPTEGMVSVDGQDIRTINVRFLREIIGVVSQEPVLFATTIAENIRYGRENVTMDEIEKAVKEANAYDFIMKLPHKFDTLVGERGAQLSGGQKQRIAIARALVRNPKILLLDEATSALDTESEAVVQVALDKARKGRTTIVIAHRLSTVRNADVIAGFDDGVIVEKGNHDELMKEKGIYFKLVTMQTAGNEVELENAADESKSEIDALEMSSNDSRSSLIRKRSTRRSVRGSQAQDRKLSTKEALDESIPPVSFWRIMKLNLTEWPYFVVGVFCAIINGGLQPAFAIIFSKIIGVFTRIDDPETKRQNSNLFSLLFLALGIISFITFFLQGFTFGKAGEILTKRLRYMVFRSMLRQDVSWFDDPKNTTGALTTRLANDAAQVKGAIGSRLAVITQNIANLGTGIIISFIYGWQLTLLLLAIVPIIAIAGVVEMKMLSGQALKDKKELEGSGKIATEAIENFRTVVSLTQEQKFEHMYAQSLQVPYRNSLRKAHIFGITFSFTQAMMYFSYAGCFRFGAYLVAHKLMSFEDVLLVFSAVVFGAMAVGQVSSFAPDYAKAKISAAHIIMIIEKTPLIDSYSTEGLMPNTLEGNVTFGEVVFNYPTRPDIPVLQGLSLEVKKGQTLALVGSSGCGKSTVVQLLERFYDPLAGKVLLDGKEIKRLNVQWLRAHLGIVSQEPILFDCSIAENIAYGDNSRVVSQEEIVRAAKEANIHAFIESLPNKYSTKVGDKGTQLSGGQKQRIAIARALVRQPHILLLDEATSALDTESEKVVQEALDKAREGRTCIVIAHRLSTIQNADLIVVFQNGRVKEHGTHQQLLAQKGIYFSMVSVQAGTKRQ

ATP-dependent translocase ABCB1 (Mus musculus, UniProt P21447), sequence (P21447 whole entry): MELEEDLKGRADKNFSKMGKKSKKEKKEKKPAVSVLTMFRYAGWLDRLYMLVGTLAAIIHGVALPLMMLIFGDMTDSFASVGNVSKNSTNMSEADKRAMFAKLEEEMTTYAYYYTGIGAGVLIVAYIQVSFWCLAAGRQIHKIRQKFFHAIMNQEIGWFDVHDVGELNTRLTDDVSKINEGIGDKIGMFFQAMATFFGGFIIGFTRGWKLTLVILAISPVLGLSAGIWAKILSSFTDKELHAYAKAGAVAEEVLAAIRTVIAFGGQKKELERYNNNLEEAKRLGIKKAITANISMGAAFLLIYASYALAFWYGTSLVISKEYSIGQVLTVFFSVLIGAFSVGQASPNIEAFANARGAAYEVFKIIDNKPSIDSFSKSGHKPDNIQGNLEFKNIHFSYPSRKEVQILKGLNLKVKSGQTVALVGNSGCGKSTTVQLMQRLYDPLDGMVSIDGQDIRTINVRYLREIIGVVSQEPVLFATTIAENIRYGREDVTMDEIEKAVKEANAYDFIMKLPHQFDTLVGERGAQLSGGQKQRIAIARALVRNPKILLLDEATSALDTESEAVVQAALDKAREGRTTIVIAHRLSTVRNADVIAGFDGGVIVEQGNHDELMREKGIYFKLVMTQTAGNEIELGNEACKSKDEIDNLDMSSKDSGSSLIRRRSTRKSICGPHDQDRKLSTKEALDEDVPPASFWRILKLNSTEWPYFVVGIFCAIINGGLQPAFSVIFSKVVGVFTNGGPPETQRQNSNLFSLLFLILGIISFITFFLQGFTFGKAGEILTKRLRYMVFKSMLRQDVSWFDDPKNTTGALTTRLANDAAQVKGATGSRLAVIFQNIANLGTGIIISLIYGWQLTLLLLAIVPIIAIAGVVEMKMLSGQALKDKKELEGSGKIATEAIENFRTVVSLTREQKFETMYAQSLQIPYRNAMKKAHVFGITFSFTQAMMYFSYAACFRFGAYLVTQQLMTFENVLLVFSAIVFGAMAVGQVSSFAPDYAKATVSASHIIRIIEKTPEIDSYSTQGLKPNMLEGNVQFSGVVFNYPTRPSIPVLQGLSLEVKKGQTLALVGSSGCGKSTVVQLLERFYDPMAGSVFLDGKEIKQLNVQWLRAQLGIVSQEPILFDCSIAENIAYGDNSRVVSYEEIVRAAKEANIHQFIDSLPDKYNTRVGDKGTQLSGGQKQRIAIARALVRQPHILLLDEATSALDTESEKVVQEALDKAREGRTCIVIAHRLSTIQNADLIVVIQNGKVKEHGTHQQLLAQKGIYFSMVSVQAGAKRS

| Molecule | Activity [1] | Activity [2] |
| --- | --- | --- |
| CN1CC[C@]23c4c5ccc(O)c4O[C@H]2[C@@H](O)C=C[C@H]3[C@H]1C5 [MORPHINE] | substrate [+] |  |
| C[C@@H]1C[C@H]2[C@@H]3CCC4=CC(=O)C=C[C@]4(C)[C@@]3(F)[C@@H](O)C[C@]2(C)[C@@]1(O)C(=O)CO [DEXAMETHASONE] | substrate [+] | substrate [+] |
| IVERMECTIN | substrate [+] | substrate [+] |
